Data: patent publication US7605149B1, “Modulation of the phospholipase A2 pathway as a therapeutic” (University of South Florida, priority 1998, dated 2009)
Where two headings read alike, the source gives them in different places.

Legend:
[1] = tested on: rat aortae (aortic rings); experiment: Vessel bath vasoactivity assay: ET-1-induced vasoconstriction of rat aortic rings and its enhancement by Aβ or sPLA2; format: cell-based; conditions: for effect on sPLA2-induced vasoconstriction: inactivation of sPLA2
Experimental: Vessel experiments. Freshly dissected aortae were prepared from normal male Sprague-Dawley rats (7-8 months old, purchased from Zivic Miller, Zelienople, Pa.) as previously described by Paris et al, Exp Neurol 1998 and Exp Neurol 1999. Rat aortae were segmented into rings and suspended in Kreb's buffer on hooks connected to a tensiometer linked to a MacLab system. Aortic rings were equilibrated for 2 hours, in 7 mL tissue baths containing Kreb's buffer oxygenated with 95% O2: 5% CO2, and thermoregulated to 37° C. A baseline tension of 2 g was applied to each ring, and the first set of aortic rings was pretreated with the various compounds named above either alone or in combination with Aβ peptides. After 5 minutes of incubation in the presence or absence of Aβ, this first set of vessels was subjected to a dose range of ET-1 (from 1 nM to 5 nM). A second set of vessels was treated with 1 μM of Aβ peptides prior to the addition of ET-1. A third set (control) received only ET-1 treatment. Each ET-1 dose was added only after the constriction response to the previous dose had reached a plateau. In all cases the means ±1 standard error (SE) of the percentage vasoconstriction increase over baseline were determined for each dose of ET-1 used.
(§1) Statistical analysis. Analysis of variance (ANOVA) was used to analyze the data, with post-hoc comparisons of means carried out where appropriate by Sheffe's or Bonferonni's methods. As previously described (Paris et al., Neurosci Lett, 1998), a significant interactive term by ANOVA was taken as evidence that both drug x and Aβ are modulating a common signal transduction pathway. […] Levene's test for equality of variance followed by t-test for independent samples was used for single mean comparisons. Alpha levels were set at 0.05 for all analyses. Analyses were performed using SPSS for Windows release 9.5.

[2] = tested on: intact rat aortae (aortic rings); experiment: [3H]AA release in intact rat aortae; format: cell-based
Experimental: Measurement of [^3H]AA release in intact rat aortae. Aortic rings (1.5 mm long) were placed in 1 mL of physiological saline solution (PSS, containing 130 mM NaCl, 5 mM KCl, 1.5 mM CaCl2, 1.2 mM MgCl2, 10 mM HEPES, and 10 mM glucose adjusted to pH 7.2 with NaOH) and incubated with 2.5 μCi of [^3H]AA (specific activity of 91.8 Ci/mmol) for 24 h at 4° C. Rat aortae were subsequently washed in 50 mL of Kreb's buffer and then subjected to the vasoactivity assay. Initial background [^3H]AA release was determined following 30 min of equillibration for each aortic ring prior to treatment by removing 200 μL of Kreb's buffer (total volume of 7 mL each) from each bath, and measuring radioactivity (in cpm) after the addition of 1 mL of scintillant (EcoLume, ICN Inc., Calif.) using a liquid scintillation counter (1209 Rackbeta, WALLAC Inc., Md.). Subsequently, aortic rings were treated with sPLA2 alone or Aβ1-40 (1 μM) in the presence or absence of a MEK1/2 inhibitor (PD 98059) or a cPLA2 inhibitor (AACOCF3) for 5 min, or went untreated for the same length of time (control). Quantification of [^3H]AA release was then preformed as described above. All aortic rings were then subjected to a dose range of ET-1 (1, 2.5, and 5 nM), and radioactivity was measured 5 min after the first dose of ET-1 (1 nM), and 20 min after the second (2.5 nM) and third (5 nM) doses of ET-1. Radioactivity incorporated into each ring was determined by placing the aortic ring in 1 mL of scintillant and assaying as described above. Results are expressed as the means ±1 SE of the percentage of [^3H]AA incorporated for each aortic ring [([^3H]AA released—[^3H]AA initial background)/incorporated [^3H]AA].
as §1

N9 microglial cells = experiment: Leukotriene B4 (LTB4) ELISA on microglial cell supernatants; format: cell-based, murine; conditions: 18 hours, FIG. 23
Experimental: Leukotriene -B4 (LTB4) enzyme-linked immunoabsorbant assay (ELISA). Quantitative determination of LTB4 levels was made using a competitive binding ELISA (R&D Systems, Minneapolis, Minn.) designed to measure LTB4 in cell culture supernatants (as described in Paris et al., Exp Neurol 1999). A murine microglial cell line (N9) was provided by Dr. Paola Ricciardi-Castagnoli (Cellular Pharmacology Center, Milan, Italy) and were grown in RPMI medium supplemented with five percent fetal calf serum, 2 mM glutamine, 100 U/mL penicillin, […] streptomycin and 0.05 mM 2-mercaptoethanol. Microglial cells were seeded at 50,000 cells/well in 6-well plates (Falcon, France) and treated with Aβ1-40 (500 nM), drugs which oppose the PLA2/AA/5-LOX/COX-2 pathway, or untreated (control) and incubated for 18 hours. Cell supernatants were then collected and diluted 10-fold in assay buffer. 50 μL of diluted samples were then used in the assay, and each sample was assayed in duplicate. Manipulations were performed in accordance with the manufacturer's instruction. A spectramax 250 spectrophotometer (Molecular Devices, San Diego, USA) was used to measure absorbance at 405 nm and a standard curve was plotted using a 4-parameter model.
as §1

[3] = tested on: rat aortae (aortic rings); conditions: cited from earlier work
[4] = 1 μM with 1 μM Aβ1-40, 5 minutes prior to ET-1, FIGS. 7, 9, 10, 12
[5] = 5 μM with 1 μM Aβ1-40, FIGS. 11, 19
[6] = 25 μM with 1 μM Aβ1-40, FIGS. 5, 16

O[C@@H](CS)[C@@H](O)CS (racemic) [dithiothreithol]
effect on sPLA2-induced vasoconstriction ([1]; concentration not given): inhibition of sPLA2-induced vasoconstriction

CCCCC/C=C\C/C=C\C/C=C\C/C=C\CCCC(=O)O [AA, Arachidonic acid]
effect on ET-1-induced vasoconstriction ([1]; concentration not given): can enhance ET-1-induced constriction

CCCCC/C=C\C/C=C\C/C=C\C/C=C\CCCC(=O)C(F)(F)F [AACOCF3]
effect on Aβ-induced [3H]AA release from aortic rings ([2]; 1 μM with Aβ1-40 1 μM, FIG. 21): inhibited

O=C1O/C(=C/Br)CCC1c1cccc2ccccc12 (centres unmarked) [HELSS, haloenol lactone suicide substrate]
effect on Aβ vasoactivity (Aβ1-40 enhancement of ET-1-induced vasoconstriction) [1, 4]: unable to affect Aβ-induced vasoactivity

CC(C)c1ccc2c(c1)c(SC(C)(C)C)c(CC(C)(C)C(=O)O)n2Cc1ccc(Cl)cc1 [MK-886]
effect on Aβ vasoactivity (Aβ1-40 enhancement of ET-1-induced vasoconstriction) [1, 4]: markedly inhibits Aβ vasoactivity

CC[C@H](C)[C@H](NC(=O)CN)C(=O)NCC(=O)N[C@@H](C)C(=O)N[C@H](C(=O)N[C@@H](CC(C)C)C(=O)N[C@@H](CCCCN)C(=O)N[C@H](C(=O)N[C@@H](CC(C)C)C(=O)N[C@H](C(=O)N[C@H](C(=O)NCC(=O)N[C@@H](CC(C)C)C(=O)N1CCC[C@H]1C(=O)N[C@@H](C)C(=O)N[C@@H](CC(C)C)C(=O)N[C@H](C(=O)N[C@@H](CO)C(=O)N[C@@H](Cc1c[nH]c2ccccc12)C(=O)N[C@H](C(=O)N[C@@H](CCCCN)C(=O)N[C@@H](CCCNC(=N)N)C(=O)N[C@@H](CCCCN)C(=O)N[C@@H](CCCNC(=N)N)C(=O)N[C@@H](CCC(N)=O)C(=O)N[C@@H](CCC(N)=O)C(N)=O)[C@@H](C)CC)[C@@H](C)CC)[C@@H](C)O)[C@@H](C)O)C(C)C)C(C)C [Melittin]
effect on ET-1-induced vasoconstriction ([1]; 1 μM, 5 minutes prior to ET-1 dose range (1-5 nM), FIG. 3): potentiate ET-1-induced vasoconstriction to a similar extent as Aβ

CS(=O)(=O)Nc1ccc([N+](=O)[O-])cc1OC1CCCCC1 [NS-398]
effect on Aβ vasoactivity (Aβ1-40 enhancement of ET-1-induced vasoconstriction) [1, 5]: able to block Aβ vasoactivity
effect on Aβ-induced microglial LTB4 release (N9 microglial cells; 50 μM with Aβ1-40 500 nM): complete blockade of LTB4 release

COc1cccc(-c2cc(=O)c3ccccc3o2)c1N [PD 98059]
effect on Aβ vasoactivity (Aβ1-40 enhancement of ET-1-induced vasoconstriction) [1, 6]: complete blockade
effect on Aβ1-42 vasoactivity ([1]; 25 μM with 1 μM Aβ1-42, FIG. 17): complete blockade
effect on sPLA2 enhancement of ET-1-induced vasoconstriction ([1]; 25 μM with 2.5 U/mL sPLA2, FIG. 18): completely inhibit sPLA2 enhancement of ET-1-induced vasoconstriction
effect on Aβ-induced [3H]AA release from aortic rings ([2]; 25 μM with Aβ1-40 1 μM, FIG. 22): blocked
effect on Aβ-induced microglial LTB4 release (N9 microglial cells; 25 μM with Aβ1-40 500 nM): complete blockade of Aβ-induced microglial LTB4 release

O=c1c(O)c(-c2ccc(O)c(O)c2)oc2cc(O)cc(O)c12 [Quercetin, quercetin]
effect on Aβ vasoactivity (Aβ1-40 enhancement of ET-1-induced vasoconstriction) ([1]; 10 μM with 1 μM Aβ1-40, FIGS. 8, 14): unable to block Aβ vasoactivity

O=C(NCCCCCCNC(=O)ON=C1CCCCC1)ON=C1CCCCC1 [RHC-80267]
effect on Aβ vasoactivity (Aβ1-40 enhancement of ET-1-induced vasoconstriction) ([1]; 8 μM with 1 μM Aβ1-40, FIG. 13): not able to modulate ET-1-induced vasoconstriction or to affect Aβ enhancement of ET-1-induced vasoconstriction
effect on ET-1-induced vasoconstriction ([1]; 8 μM, 5 minutes prior to ET-1 dose range, FIG. 13): not able to modulate ET-1-induced vasoconstriction

Oc1ccc(-c2nc(-c3ccncc3)c(-c3ccc(F)cc3)[nH]2)cc1 [SB 202190]
effect on Aβ vasoactivity (Aβ1-40 enhancement of ET-1-induced vasoconstriction) [1, 5]: complete inhibition of Aβ vasoactivity
effect on Aβ-induced microglial LTB4 release (N9 microglial cells; 5 μM with Aβ1-40 500 nM): complete blockade of Aβ-induced microglial LTB4 release

Nc1ncnc2c1ncn2C1CCCO1 (centres unmarked) [SQ-22536]
effect on Aβ vasoactivity ([3]; adenylyl cyclase inhibitor, reference given): does not have any effect on the vasoactive properties of Aβ

COc1cccc2c1cc([N+](=O)[O-])c1c(C(=O)O)cc3c(c12)OCO3 [aristolochic acid]
effect on Aβ vasoactivity ([1]; high doses (25 μM)): partial blockade of the vasoactive properties of Aβ
effect on Aβ vasoactivity ([1]; low doses (<10 μM)): unable to affect Aβ vasoactivity

CN(C)CCCn1cc(C2=C(c3c[nH]c4ccccc34)C(=O)NC2=O)c2ccccc21 [bisindolylmaleimide I]
effect on Aβ vasoactivity (Aβ1-40 enhancement of ET-1-induced vasoconstriction) ([1]; 1.5 μM with 1 μM Aβ1-40, FIG. 15): reduction in Aβ vasoactivity was merely additive
effect on ET-1-induced vasoconstriction ([1]; 1.5 μM, 5 minutes prior to ET-1 dose range, FIG. 15): statistically interactive reduction in ET-1-induced vasoconstriction

CCCCCCCC/C=C\CCCCCCCCOCCOP(=O)([O-])OCC[N+](C)(C)C [oleylox., oleyloxyethylphosphocholine]
effect on Aβ vasoactivity (Aβ1-40 enhancement of ET-1-induced vasoconstriction) [1, 4]: completely blocks
effect on Aβ1-42 vasoactivity ([1]; 1 μM with Aβ1-42): completely blocks
effect on sPLA2-induced vasoconstriction ([1]; concentration not given): inhibition of sPLA2-induced vasoconstriction

CC(C)NCC(O)COc1cccc2ccccc12 (centres unmarked) [propanolol]
effect on Aβ vasoactivity ([1]; concentration not given): unable to block Aβ vasoactivity

APP657-676: APP-derived peptide, a known stimulator of Go (EFRHDSGYEVHHQKLVFFAE; UniProt P05067 674-693, looked up, fragment)
effect on Aβ vasoactivity ([1]; concentration not given): not able to modulate ET-1-induced vasoconstriction or to affect Aβ-vasoactivity
effect on ET-1-induced vasoconstriction ([1]; concentration not given): not able to modulate ET-1-induced vasoconstriction

Aβ1-42: soluble β-amyloid peptide with forty-two amino acids, obtained from QCB
magnitude of constriction induced by ET-1 in isolated mammalian vessels ([3]; freshly solubilized, previously shown (Crawford et al., 1998)): increase the magnitude of constriction induced by ET-1

diacylglycerol [DAG]
effect on ET-1-induced vasoconstriction ([1]; 10 μM, 5 minutes prior to ET-1 dose range, FIG. 14): able to potentiate ET-1-induced vasoconstriction

isotetrandrine
effect on Aβ vasoactivity (Aβ1-40 enhancement of ET-1-induced vasoconstriction) [1, 6]: partially blocked Aβ vasoactivity

mastoparan
effect on ET-1-induced vasoconstriction ([1]; 5 μM, 5 minutes prior to ET-1 dose range, FIG. 4): potentiate ET-1-induced vasoconstriction to a similar extent as Aβ

p-aminophenyl-α-D-mannopyranoside-bovine serum albumin [mannose-BSA]
effect on ET-1-induced vasoconstriction [1]: vasoactive to a similar extent as Aβ

pertussis toxin
effect on Aβ vasoactivity ([1]; concentration not given): insensitive
